Literature values, collected in paper PMC7395068, “The evolution of strategies to minimise the risk of human drug-induced liver injury (DILI) in drug discovery and development” (Archives of Toxicology, 2020).
Counter-ions that a name gives are not always drawn. Like-named read-outs stand apart in the source and are kept apart here.

Legend:
[1] = test system: isolated mouse liver mitochondria; conditions: cited from earlier work
[2] = cited from earlier work
[3] = ref Chen 2016; cited from earlier work
[4] = test system: human hepatocytes; conditions: cited from earlier work
[5] = test system: THLE or HepG2 cells, isolated mitochondria, BSEP; conditions: cited from earlier work
[6] = test system: primary human hepatocytes, NIH3T3 fibroblasts, BSEP, CYP3A4; conditions: cited from earlier work
[7] = In vitro Assay, ref Porceddu 2012
[8] = isolated mouse liver mitochondria, EC20<=2uM, ref Porceddu 2012
[9] = In vitro Assay, ref Schadt 2015

COc1cc(CNC(=O)CCCC/C=C/C(C)C)ccc1O [Capsaicin]
in vitro data EC2<=1x Cmax [1, 7]: -VE | in vitro data EC20<=2uM [1, 7]: +VE | In vivo DILI ([2]; ref Porceddu 2012): -VE

CC(=O)N(O)CCCCCNC(=O)CCC(=O)N(O)CCCCCNC(=O)CCC(=O)N(O)CCCCCN [deferoxamine]
DILI +VE (5-8), DILI -VE (-4) [3]: +VE | DILI severity category [3]: vLess-DILI-Concern | Structural based (HCI) ([4]; In vitro Assay, ref Xu 2008): +VE | In vivo DILI ([2]; ref Aleo 2019): +VE | In vivo DILI ([2]; ref Xu 2008): +VE | Partition Hybrid HRM Score ([5]; In vitro Assay, ref Aleo 2019): +VE | Ro2 Hybrid HRM Score ([5]; In vitro Assay, ref Aleo 2019): +VE

Nc1c(Br)cc(Br)cc1CN[C@H]1CC[C@H](O)CC1 [Ambroxol]
in vitro data EC2<=1x Cmax [1, 7]: -VE

Oc1cc(O)cc(O)c1 [Phloroglucinol]
in vitro data EC20<=2uM [1, 8]: -VE

O=P(O)(O)C(Cl)(Cl)P(=O)(O)O [Clodronate]
in vitro data EC2<=1x Cmax [1, 7]: -VE | in vitro data EC20<=2uM [1, 7]: -VE | In vivo DILI ([2]; ref Porceddu 2012): -VE

C[C@H]1O[C@@H](O[C@H]2[C@@H](O)C[C@H](O[C@H]3[C@@H](O)C[C@H](O[C@H]4CC[C@@]5(C)[C@H](CC[C@@H]6[C@@H]5C[C@@H](O)[C@]5(C)[C@@H](C7=CC(=O)OC7)CC[C@]65O)C4)O[C@@H]3C)O[C@@H]2C)C[C@H](O)[C@@H]1O [digoxin]
Cellular toxicity (3T3 cells) [6, 9]: -VE | Combined Assay [6, 9]: -VE | GSH adduct HML [6, 9]: -VE | Hepatocyte cellular toxicity [6, 9]: -VE | MitoTox 3T3 [6, 9]: -VE | TDI CYP3A4 [6, 9]: -VE | hBSEP inhibition [6, 9]: -VE | Structural based (HCI) ([4]; In vitro Assay, ref Xu 2008): -VE | Ro2 Hybrid HRM Score ([5]; In vitro Assay, ref Aleo 2019): -VE | Partition Hybrid HRM Score [5]: -VE

Cc1c(Cl)cccc1Nc1ccccc1C(=O)O [Tolfenamic acid]
in vitro data EC2<=1x Cmax [1, 7]: +VE | in vitro data EC20<=2uM [1, 7]: +VE | In vivo DILI ([2]; ref Porceddu 2012): +VE

Cc1cc2c(C(C)C)c(O)c(O)c(C=O)c2c(O)c1-c1c(C)cc2c(C(C)C)c(O)c(O)c(C=O)c2c1O [Gossypol]
in vitro data EC20<=2uM [1, 7]: +VE | In vivo DILI ([2]; ref Porceddu 2012): +VE

CC[C@H]1OC(=O)[C@H](C)C(=O)[C@H](C)[C@@H](O[C@@H]2O[C@H](C)C[C@H](N(C)C)[C@H]2O)[C@](C)(OC)C[C@@H](C)C(=O)[C@H](C)[C@H]2N(CCCCn3cnc(-c4cccnc4)c3)C(=O)O[C@]12C [telithromycin]
DILI +VE (5-8), DILI -VE (-4) [3]: +VE | DILI severity category [3]: vMost-DILI-Concern | Structural based (HCI) ([4]; In vitro Assay, ref Xu 2008): +VE | In vivo DILI ([2]; ref Aleo 2019): +VE | In vivo DILI ([2]; ref Xu 2008): +VE | Partition Hybrid HRM Score ([5]; In vitro Assay, ref Aleo 2019): +VE | Ro2 Hybrid HRM Score ([5]; In vitro Assay, ref Aleo 2019): +VE

CCOC(=O)[N-]c1cn(N2CCOCC2)n[o+]1 [Molsidomine]
in vitro data EC2<=1x Cmax [1, 7]: -VE | in vitro data EC20<=2uM [1, 7]: -VE | In vivo DILI ([2]; ref Porceddu 2012): -VE

Cc1c(N(C)CS(=O)(=O)[O-])c(=O)n(-c2ccccc2)n1C.[Na+] [dipyrone]
in vitro data EC20<=2uM [1]: +VE

Cc1cc(=O)n(-c2ccccc2)n1C [Antipyrine]
in vitro data EC2<=1x Cmax [1, 7]: +VE | in vitro data EC20<=2uM [1, 7]: -VE | In vivo DILI ([2]; in vivo): -VE

Cc1ncc([N+](=O)[O-])n1CCO [metronidazole]
Structural based (HCI) ([4]; In vitro Assay, ref Xu 2008): +VE | Partition Hybrid HRM Score ([5]; In vitro Assay, ref Aleo 2019): -VE | Ro2 Hybrid HRM Score ([5]; In vitro Assay, ref Aleo 2019): -VE

CC(C)NCC(O)c1cc(O)cc(O)c1 (centres unmarked) [metaproterenol sulfate]
Structural based (HCI) ([4]; In vitro Assay, ref Xu 2008): -VE | Partition Hybrid HRM Score ([5]; In vitro Assay, ref Aleo 2019): -VE | Ro2 Hybrid HRM Score ([5]; In vitro Assay, ref Aleo 2019): -VE

COc1cc2c(c(OC)c1OC)-c1ccc(OC)c(=O)cc1[C@@H](NC(C)=O)CC2 [colchicine]
Cellular toxicity (3T3 cells) [6]: +VE | Combined Assay [6]: -VE | GSH adduct HML [6]: -VE | Hepatocyte cellular toxicity [6]: -VE | MitoTox 3T3 [6]: -VE | TDI CYP3A4 [6]: -VE | hBSEP inhibition [6]: -VE | Structural based (HCI) [4]: -VE | Partition Hybrid HRM Score [5]: -VE

C=C1CC[C@H](O)C/C1=C/C=C1\CCC[C@]2(C)[C@@H]([C@H](C)/C=C/[C@H](C)C(C)C)CC[C@@H]12 [ergocalciferol]
DILI +VE (5-8), DILI -VE (-4) [3]: -VE | DILI severity category [3]: vNo-DILI-Concern | Structural based (HCI) ([4]; In vitro Assay, ref Xu 2008): -VE | In vivo DILI ([2]; ref Aleo 2019): -VE | In vivo DILI ([2]; ref Xu 2008): -VE | Partition Hybrid HRM Score ([5]; In vitro Assay, ref Aleo 2019): -VE | Ro2 Hybrid HRM Score ([5]; In vitro Assay, ref Aleo 2019): -VE

NCCS(=O)(=O)O [taurine]
in vitro data EC20<=2uM [1, 8]: -VE

CCCc1nc2c(C)cc(-c3nc4ccccc4n3C)cc2n1Cc1ccc(-c2ccccc2C(=O)O)cc1 [telmisartan]
DILI +VE (5-8), DILI -VE (-4) [3]: +VE | DILI severity category [3]: vLess-DILI-Concern | Cellular toxicity (3T3 cells) [6]: -VE | Combined Assay [6]: +VE | GSH adduct HML [6]: -VE | Hepatocyte cellular toxicity [6]: +VE | MitoTox 3T3 [6]: -VE | TDI CYP3A4 [6]: -VE | hBSEP inhibition [6]: +VE | Structural based (HCI) ([4]; In vitro Assay, ref Xu 2008): -VE | In vivo DILI ([2]; ref Aleo 2019): +VE | In vivo DILI ([2]; ref Schadt 2015): -VE | In vivo DILI ([2]; ref Xu 2008): -VE | Partition Hybrid HRM Score ([5]; In vitro Assay, ref Aleo 2019): +VE | Ro2 Hybrid HRM Score ([5]; In vitro Assay, ref Aleo 2019): +VE

Nc1nc2nc[nH]c2c(=S)[nH]1 [thioguanine]
Structural based (HCI) ([4]; In vitro Assay, ref Xu 2008): -VE | Partition Hybrid HRM Score ([5]; In vitro Assay, ref Aleo 2019): -VE | Ro2 Hybrid HRM Score ([5]; In vitro Assay, ref Aleo 2019): -VE

NC(=O)c1ncn([C@@H]2O[C@H](CO)[C@@H](O)[C@H]2O)n1 [ribavirin]
DILI +VE (5-8), DILI -VE (-4) [3]: -VE | DILI severity category [3]: Ambiguous DILI-concern | Structural based (HCI) ([4]; In vitro Assay, ref Xu 2008): -VE | In vivo DILI ([2]; ref Xu 2008): -VE | Partition Hybrid HRM Score ([5]; In vitro Assay, ref Aleo 2019): -VE | Ro2 Hybrid HRM Score ([5]; In vitro Assay, ref Aleo 2019): -VE

CO[C@]12C[C@@H](COC(=O)c3cncc(Br)c3)CN(C)[C@@H]1Cc1cn(C)c3cccc2c13 [Nicergoline]
in vitro data EC2<=1x Cmax [1, 7]: -VE | in vitro data EC20<=2uM [1, 7]: +VE | In vivo DILI ([2]; ref Porceddu 2012): -VE

O=C1NS(=O)(=O)c2ccccc21 [Saccharin]
in vitro data EC2<=1x Cmax [1, 7]: +VE | in vitro data EC20<=2uM [1, 7]: -VE | In vivo DILI ([2]; ref Porceddu 2012): +VE

Oc1ccc(/C=C/c2cc(O)cc(O)c2)cc1 [Resveratrol]
in vitro data EC2<=1x Cmax [1, 7]: -VE

CC1(C)S[C@@H]2[C@H](NC(=O)[C@H](N)c3ccccc3)C(=O)N2[C@H]1C(=O)O [ampicillin]
in vitro data EC2<=1x Cmax [1, 7]: +VE

CC(=O)OCC(=O)[C@@]1(O)CC[C@H]2[C@@H]3CCC4=CC(=O)CC[C@]4(C)[C@@]3(F)[C@@H](O)C[C@@]21C [fludrocortisone acetate]
Structural based (HCI) ([4]; In vitro Assay, ref Xu 2008): -VE | In vivo DILI ([2]; ref Aleo 2019): -VE | In vivo DILI ([2]; ref Xu 2008): -VE | Partition Hybrid HRM Score ([5]; In vitro Assay, ref Aleo 2019): -VE | Ro2 Hybrid HRM Score ([5]; In vitro Assay, ref Aleo 2019): -VE

Cc1cc2nc3c(=O)[nH]c(=O)nc-3n(C[C@H](O)[C@H](O)[C@H](O)CO)c2cc1C [riboflavin]
in vitro data EC2<=1x Cmax [1, 7]: -VE

Cc1cn(-c2cc(NC(=O)c3ccc(C)c(Nc4nccc(-c5cccnc5)n4)c3)cc(C(F)(F)F)c2)cn1 [nilotinib]
in vitro data EC2<=1x Cmax [1, 7]: +VE

CCOC(=O)c1ccc(O)cc1 [Ethyl paraben]
in vitro data EC20<=2uM [1]: -VE

O=C(O)c1cc(O)c(O)c(O)c1 [Gallic acid]
in vitro data EC2<=1x Cmax [1, 7]: +VE

CC[C@@H](CO)NC(=O)[C@@H]1C=C2c3cccc4c3c(cn4C)C[C@H]2N(C)C1 [methysergide maleate]
Structural based (HCI) ([4]; In vitro Assay, ref Xu 2008): -VE | In vivo DILI ([2]; ref Aleo 2019): -VE | In vivo DILI ([2]; ref Xu 2008): -VE | Partition Hybrid HRM Score [5]: -VE | Ro2 Hybrid HRM Score [5]: -VE

CN1C(=O)OC(C)(C)C1=O [trimethadione]
DILI +VE (5-8), DILI -VE (-4) [3]: -VE | DILI severity category [3]: Ambiguous DILI-concern | Structural based (HCI) ([4]; In vitro Assay, ref Xu 2008): -VE | In vivo DILI ([2]; ref Xu 2008): +VE

OC[C@H]1O[C@@](CO)(O[C@H]2O[C@H](CO)[C@@H](O)[C@H](O)[C@H]2O)[C@@H](O)[C@@H]1O [Sucrose]
in vitro data EC20<=2uM [1]: -VE

Oc1ncnc2[nH]ncc12 [allopurinol]
DILI +VE (5-8), DILI -VE (-4) [3]: +VE | DILI severity category [3]: vMost-DILI-Concern | Structural based (HCI) ([4]; In vitro Assay, ref Xu 2008): +VE | In vivo DILI ([2]; […]): +VE | In vivo DILI ([2]; ref Aleo 2019): +VE | In vivo DILI ([2]; ref Xu 2008): +VE | Partition Hybrid HRM Score ([5]; In vitro Assay, ref Aleo 2019): +VE | Ro2 Hybrid HRM Score ([5]; In vitro Assay, ref Aleo 2019): -VE

COc1cc(/C=C/C(=O)CC(=O)/C=C/c2ccc(O)c(OC)c2)ccc1O [Curcumin]
in vitro data EC2<=1x Cmax [1, 7]: -VE

O=C(/C=C/c1ccc(O)c(O)c1)c1ccc(O)cc1O [Butein]
in vitro data EC20<=2uM [1, 8]: +VE
